Assay results published in patent publication US12570752B2, “Combination therapy with an anti BCMA antibody and a gamma secretase inhibitor” (priority 2019, dated 2026).

How the values were obtained:
[1] = test system: multiple myeloma cell line L363; assay: L363 cell viability, nirogacestat pre-treatment then belantamab mafodotin or controls; format: cell-based; settings: nirogacestat pre-treatment 24 hours, then treatment for additional 72 hours
[2] = cited from earlier work
[3] = cited from earlier work; remark: listed apart in the source

Molecule | effect on cell viability [1] | time to pharmacodynamically active plasma levels ([2]; after treatment initiation) | exposure versus dose ([2]; between 20 and 330 mg BID) | time to steady-state ([2]; repeated BID administration) | incidence of dose-limiting diarrhea and elevated liver enzymes ([3]; compared with RO4929097 or MK-0752 (Messersmith, 2015)) | safety profile versus other gamma-secretase inhibitors ([3]; in vivo) | incidence of secondary primary malignancies (SPM) or treatment-emergent infections ([3]; unlike e.g. semagacestat (Messersmith, 2015; Henley, 2014))
Belantamab | no effect |  |  |  |  |  | 
CCC[C@H](N[C@H]1CCc2cc(F)cc(F)c2C1)C(=O)Nc1cn(C(C)(C)CNCC(C)(C)C)cn1 [nirogacestat, (S)-2-(((S)-6,8-difluoro-1,2,3,4-tetrahydronaphthalen-2-yl)amino)-N-(1-(2-methyl-1-(neopentylamino)propan-2-yl)-1H-imidazol-4-yl)pentanamide] | no effect | < 48 h | dose-proportional | ≤ 8 days | does not appear to be as high | better safety profile | there does not seem to be an increased incidence
